Patent US10874743B2, “IRAK degraders and uses thereof” (Kymera Therapeutics, Inc., priority 2017, dated 2020)

How the values were obtained:
Assay type in all cases: cell-based
OCI-LY10 cells = experiment: OCI-LY-10 CTG cell viability assay (EC50); conditions: Homo sapiens, 96 h, CellTiter-Glo cell viability, 4 days incubation, top concentration 10 μM, read-out: OCI-LY10 IRAK4 EC50
Experimental: A CTG cell viability assay using OCI-LY-10 cells was run to determine compound-mediated cell viability (EC50).
Compound-mediated viability effect on OCI-LY10 was quantitatively determined using the CellTiter-Glo® Luminescent Cell Viability Assay kit from Promega (Catalog number G7570) following manufacturer's recommended procedures. […] Compounds were then added to the assay plate with final top concentration of 10 μM and 1:3 dilution series with total of 9 doses. The final DMSO concentration was normalized to 0.2%. The assay plates were incubated at 37° C. for 4 days under 5% CO2. Then the assay plate was equilibrated at room temperature for 10 minutes. […] The data was then analyzed by software Prism 7.0 from GraphPad and the dose response curves were fit using a three-parameter logistic equation to calculate EC50.

IRAK4 [1] = target: T1, IRAK4 (Homo sapiens, UniProt Q9NWZ3); experiment: OCI-LY-10 MSD assay for IRAK4 DC50; set-up: endogenous in cells; host or cells: OCI-LY10; conditions: OCI-LY10 cells, 4 hr incubation, concentration required to degrade 50% of protein
T1 sequence (Q9NWZ3 1-460): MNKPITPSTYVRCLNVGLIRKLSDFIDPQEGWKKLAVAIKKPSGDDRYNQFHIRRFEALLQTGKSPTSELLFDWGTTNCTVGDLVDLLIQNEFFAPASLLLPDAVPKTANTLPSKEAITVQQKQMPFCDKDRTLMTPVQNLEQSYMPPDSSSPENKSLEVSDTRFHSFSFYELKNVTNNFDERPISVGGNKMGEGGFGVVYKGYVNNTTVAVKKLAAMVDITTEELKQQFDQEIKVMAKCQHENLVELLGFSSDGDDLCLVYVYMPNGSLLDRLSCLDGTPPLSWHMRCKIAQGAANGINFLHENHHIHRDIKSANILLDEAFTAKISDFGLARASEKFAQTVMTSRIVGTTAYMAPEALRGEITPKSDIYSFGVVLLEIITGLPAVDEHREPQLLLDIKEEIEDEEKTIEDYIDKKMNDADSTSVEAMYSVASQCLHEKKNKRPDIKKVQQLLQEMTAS
Procedure, shortened: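 OCI-Ly10 cells were exposed to compound for 4 hr across a 3-fold, 8-point dilution series. Lysates were made in RIPA buffer, and IRAK4 remaining was measured by MSD sandwich immunoassay with anti-IRAK4 capture and detection antibodies. DC50 was taken from a four-parameter logistic fit.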

IRAK4 [2] = target: T1, IRAK4; experiment: OCI-LY-10 degradation assay (western blot, % IRAK4 degraded after 4 hours); set-up: endogenous in cells; host or cells: OCI-LY10; conditions: OCI-LY10 cells, 4 hours; for OCI-LY10 % IRAK4 Degradation (0.01 uM): 0.01 uM compound; for OCI-LY10 % IRAK4 Degradation (0.1 uM): 0.1 uM compound; for OCI-LY10 % IRAK4 Degradation (1 uM): 1 uM compound
Procedure, shortened: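 OCI-LY10 cells (RPMI-1640, 20% FBS, 55 μM 2-ME) treated with compound at 0.003-10 μM final for 4 h at 37° C, then lysed in RIPA buffer. IRAK4 level read by fluorescent western blot (20-25 μg protein) and binned as % degraded: A >50%, B >20-50%, C <20%.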

SMILES | EC50 (OCI-LY10 cells) [µM] | other results
CN(CCCOCCCc1ccc2c(c1)n(C)c(=O)n2C1CCC(=O)NC1=O)C(=O)c1ccc(-n2cc(NC(=O)c3coc(-c4ccnc(NCC(F)(F)F)c4)n3)c(C(N)=O)n2)cc1 (stereo not shown) [I-494] | > 1 | –
N#Cc1nn(-c2ccc(CNCCOCCOCCCc3ccc4c(c3)oc(=O)n4C3CCC(=O)NC3=O)cc2)cc1NC(=O)c1coc(-c2ccnc(NCC3CC3)c2)n1 (stereo not shown) [I-538] | > 1 | –
Cn1cc(NC(=O)c2coc(-c3ccnc(NCC(F)(F)F)c3)n2)c(C(=O)NC2CCN(CCOCCOCCOCCOCCCc3cccc4c3n(C)c(=O)n4C3CCC(=O)NC3=O)CC2)n1 (stereo not shown) [I-457] | > 1 | –
CN(Cc1ccc(-n2cc(NC(=O)c3coc(-c4ccnc(NCC5CC5)c4)n3)c(C(F)F)n2)cc1)C[C@H]1CN(CCCc2ccc3c(c2)n(C)c(=O)n3C2CCC(=O)NC2=O)CCO1 (stereo partly shown) [I-598] | < 0.05 | –
Cn1cc(NC(=O)c2cnn3ccc(N4CCN(C(=O)COCCOCCCc5ccc6c(c5)n(C)c(=O)n6C5CCC(=O)NC5=O)CC4)nc23)c(C(F)F)n1 (stereo not shown) [I-469] | > 1 | –
Cn1ncc2nc(Nc3cnn(CCOCCOCCOCCNc4cccc5c4C(=O)N(C4CCC(=O)NC4=O)C5=O)c3)nc(NC3CCC(N4CCOCC4)CC3)c21 (stereo not shown) [I-691] | > 1 | –
Cn1cc(NC(=O)c2cnn3ccc(N4CCN(C(=O)COCCOCCOCCOCCNc5cccc6c5C(=O)N(C5CCC(=O)NC5=O)C6=O)CC4)nc23)c(C(F)F)n1 (stereo not shown) [I-467] | > 1 | –
Cc1ncsc1-c1ccc(CNC(=O)[C@@H]2C[C@@H](O)CN2C(=O)[C@@H](NC(=O)CCCCCCCCCCC(=O)N2CCN(c3ccn4ncc(C(=O)Nc5cn(C)nc5C(F)F)c4n3)CC2)C(C)(C)C)cc1 [I-483] | > 1 | –
CN(C)CCNC(=O)c1nn(-c2ccc(C(=O)NCCCCOCCCCc3ccc4c(c3)n(C)c(=O)n4C3CCC(=O)NC3=O)cc2)cc1NC(=O)c1coc(-c2ccnc(NCC(F)(F)F)c2)n1 (stereo not shown) [I-482] | 0.1 to 0.5 | –
Cn1cc(NC(=O)c2coc(-c3ccnc(NCC(F)(F)F)c3)n2)c(C(=O)NCCOCCOCCOCCOCCCc2cccc3c2n(C)c(=O)n3C2CCC(=O)NC2=O)n1 (stereo not shown) [I-455] | > 1 | –
Cn1c(=O)n(C2CCC(=O)NC2=O)c2cccc(CCCOCCNCc3ccc(-n4cc(NC(=O)c5coc(-c6ccnc(NCC(F)(F)F)c6)n5)c(C(F)F)n4)cc3)c21 (stereo not shown) [I-533] | 0.5 to 1 | –
Cn1c(=O)n(C2CCC(=O)NC2=O)c2ccc(CCCN3CCO[C@@H](CCNCc4ccc(-n5cc(NC(=O)c6coc(-c7ccnc(NCC(F)(F)F)c7)n6)c(C(N)=O)n5)cc4)C3)cc21 (stereo partly shown) [I-575] | 0.1 to 0.5 | –
Cn1c(=O)n(C2CCC(=O)NC2=O)c2cccc(CCCOCCOCCNCc3ccc(-n4cc5c(n4)CCCN5C(=O)c4coc(-c5ccnc(NCC(F)(F)F)c5)n4)cc3)c21 (stereo not shown) [I-528] | > 1 | –
Cn1cc(NC(=O)c2coc(-c3ccnc(NCC(F)(F)F)c3)n2)c(C(=O)NCCOCCOCCOCCCc2cccc3c2n(C)c(=O)n3C2CCC(=O)NC2=O)n1 (stereo not shown) [I-464] | > 1 | –
CN1CCN(C(=O)c2nn(-c3ccc(C(=O)NCCCCOCCCCc4ccc5c(c4)n(C)c(=O)n5C4CCC(=O)NC4=O)cc3)cc2NC(=O)c2coc(-c3ccnc(NCC(F)(F)F)c3)n2)CC1 (stereo not shown) [I-481] | 0.05 to 0.1 | –
Cn1cc(NC(=O)c2cnn3ccc(N4CCN(C(=O)COCCOCCOCCOCCCc5cccc6c5n(C)c(=O)n6C5CCC(=O)NC5=O)CC4)nc23)c(C(F)F)n1 (stereo not shown) [I-465] | > 1 | –
Cn1c(=O)n(C2CCC(=O)NC2=O)c2ccc(CCCN3CCO[C@H](CNCc4ccc(-n5cc(NC(=O)c6coc(-c7ccnc(NCC8CC8)c7)n6)c(C(F)F)n5)cc4)C3)cc21 (stereo partly shown) [I-573] | > 1 | –

SMILES | EC50 (OCI-LY10 cells) [µM] | other results
O=C1CCC(n2c3ccc(NCCOCCOCCNCc4ccc(-n5cc(NC(=O)c6coc(-c7ccnc(NCC8CC8)c7)n6)c(C(F)F)n5)cc4)cc3c3cccnc32)C(=O)N1 (stereo not shown) [I-595] | 0.05 to 0.1 | –
CN1C(=O)CCC(n2c(=O)n(C)c3c(CCCOCCOCCNCc4ccc(-n5cc(NC(=O)c6coc(-c7ccnc(NCC8CC8)c7)n6)c(C(F)F)n5)cc4)cccc32)C1=O (stereo not shown) [I-596] | > 1 | –
Cn1c(=O)n(C2CCC(=O)NC2=O)c2ccc(CCCC(C)(O)CCCNCc3ccc(-n4cc(NC(=O)c5coc(-c6ccnc(NCC7CC7)c6)n5)c(C(F)F)n4)cc3)cc21 (stereo not shown) [I-540] | < 0.05 | –
Cn1cc(NC(=O)c2cnn3ccc(N4CCN(C(=O)COCCOCCOCCOCCCc5ccc6c(c5)n(C)c(=O)n6C5CCC(=O)NC5=O)CC4)nc23)c(C(F)F)n1 (stereo not shown) [I-466] | > 1 | –
COCCOCCNCc1ccc(-n2cc(NC(=O)c3coc(-c4ccnc(NCC(F)(F)F)c4)n3)c(C(N)=O)n2)cc1 [I-597] | 0.1 to 0.5 | –
Cn1c(=O)n(C2CCC(=O)NC2=O)c2ccc(C#CCCN3CCC(CNCc4ccc(-n5cc(NC(=O)c6coc(-c7ccnc(NCC8CC8)c7)n6)c(C(F)F)n5)cc4)CC3)cc21 (stereo not shown) [I-582] | < 0.05 | –
CN1C(=O)CCC(n2c(=O)n(C)c3c(CCCOCCOCCNCc4ccc(-n5cc(NC(=O)c6coc(-c7ccnc(NCC(F)(F)F)c7)n6)c(C(N)=O)n5)cc4)cccc32)C1=O (stereo not shown) [I-544] | > 1 | –
CN(C)CCNC(=O)c1nn(-c2ccc(CNCCCCOCCCCc3ccc4c(c3)n(C)c(=O)n4C3CCC(=O)NC3=O)cc2)cc1NC(=O)c1coc(-c2ccnc(NCC(F)(F)F)c2)n1 (stereo not shown) [I-560] | > 1 | –
Cc1ncsc1-c1ccc(CNC(=O)[C@@H]2C[C@@H](O)CN2C(=O)[C@@H](NCCOCCOCCOCCNCc2nn(C)cc2NC(=O)c2coc(-c3ccnc(NCC(F)(F)F)c3)n2)C(C)(C)C)cc1 [I-524] | > 1 | –
Cn1c(=O)n(C2CCC(=O)NC2=O)c2ccc(CCCOCCNCc3ccc(-n4cc(NC(=O)c5coc(-c6ccnc(NCC7CC7)c6)n5)c(C(F)F)n4)cc3)cc21 (stereo not shown) [I-531] | < 0.05 | –
Cc1ncsc1-c1ccc(CNC(=O)[C@@H]2C[C@@H](O)CN2C(=O)[C@@H](NC(=O)COCCOCCOCC(=O)N2CCN(c3ccn4ncc(C(=O)Nc5cn(C)nc5C(F)F)c4n3)CC2)C(C)(C)C)cc1 [I-485] | > 1 | –
Cn1cc(NC(=O)c2cnn3ccc(N4CCN(C(=O)COCCOCCOCCNc5cccc6c5C(=O)N(C5CCC(=O)NC5=O)C6=O)CC4)nc23)c(C(F)F)n1 (stereo not shown) [I-468] | > 1 | –
Cn1c(=O)n(C2CCC(=O)NC2=O)c2ccc(CCCN3CCO[C@@H](CNCc4ccc(-n5cc(NC(=O)c6cnn7ccc(N8CCNCC8)nc67)c(C(F)F)n5)cc4)C3)cc21 (stereo partly shown) [I-617] | 0.5 to 1 | –
NC(=O)c1nn(-c2ccc(COCC3CN(CCOCCNc4cccc5c4C(=O)N(C4CCC(=O)NC4=O)C5=O)CCO3)cc2)cc1NC(=O)c1coc(-c2ccnc(NCC(F)(F)F)c2)n1 (stereo not shown) [I-302, N-[3-carbamoyl-1-[4-[[4-[2-[2-[[2-(2,6-dioxo-3-piperidyl)-1,3-dioxo-isoindolin-4-yl]amino]ethoxy]ethyl]morpholin-2-yl]methoxymethyl]phenyl]pyrazol-4-yl]-2-[2-(2,2,2-trifluoroethylamino)-4-pyridyl]oxazole-4-carboxamide] | – | DC50 (IRAK4 [1]): < 0.05 µM; OCI-LY10 % IRAK4 Degradation (0.01 uM) (IRAK4 [2]): B (>20-50% degradation); OCI-LY10 % IRAK4 Degradation (0.1 uM) (IRAK4 [2]): A (>50% degradation); OCI-LY10 % IRAK4 Degradation (1 uM) (IRAK4 [2]): A (>50% degradation)
Cn1cc(-c2nc(C(=O)Nc3cn(-c4ccc(CNCCOCCOCCNc5cccc6c5C(=O)N(C5CCC(=O)NC5=O)C6=O)cc4)nc3C(F)F)co2)cn1 (stereo not shown) [I-352] | – | DC50 (IRAK4 [1]): > 1 µM; OCI-LY10 % IRAK4 Degradation (0.01 uM) (IRAK4 [2]): C (<20% degradation); OCI-LY10 % IRAK4 Degradation (0.1 uM) (IRAK4 [2]): C (<20% degradation); OCI-LY10 % IRAK4 Degradation (1 uM) (IRAK4 [2]): C (<20% degradation)
CC(C)(C)[C@H](NC(=O)COCCOCCOCCNc1cccc2c1C(=O)N(C1CCC(=O)NC1=O)C2=O)C(=O)N1C[C@H](O)C[C@H]1C(=O)NCc1ccc(-n2cc(NC(=O)c3coc(-c4ccnc(NCC5CC5)c4)n3)c(C(F)F)n2)cc1 (stereo partly shown) [I-284] | – | DC50 (IRAK4 [1]): > 1 µM; OCI-LY10 % IRAK4 Degradation (0.01 uM) (IRAK4 [2]): C (<20% degradation); OCI-LY10 % IRAK4 Degradation (0.1 uM) (IRAK4 [2]): C (<20% degradation); OCI-LY10 % IRAK4 Degradation (1 uM) (IRAK4 [2]): C (<20% degradation)
CN(CCOCCOCCCc1ccc2c(c1)C(=O)N(C1CCC(=O)NC1=O)C2=O)C(=O)c1ccc(-n2cc(NC(=O)c3coc(-c4ccnc(NCC5CC5)c4)n3)c(C(N)=O)n2)cc1 (stereo not shown) [I-228] | – | DC50 (IRAK4 [1]): < 0.05 µM; OCI-LY10 % IRAK4 Degradation (0.01 uM) (IRAK4 [2]): A (>50% degradation); OCI-LY10 % IRAK4 Degradation (0.1 uM) (IRAK4 [2]): A (>50% degradation); OCI-LY10 % IRAK4 Degradation (1 uM) (IRAK4 [2]): A (>50% degradation)
